Measurements as given in publication PMC6522510 (Nature Communications, 2019).
Where a name gives a salt, the structure may show the parent alone. Read-outs that look alike come from different tables or passages of the source.

Key:
Design in all cases: species or system AML cell lines (8); Primary HTS, single concentration about 10 uM, Cell Titer Glo viability; log10 luminescence, per cent inhibition relative to cycloheximide control
Conditions in all cases: 72 h, inhibitor
CHRF288-11 = tested on: CHRF288-11
CMK = tested on: CMK
CMS = tested on: CMS
M07e = tested on: M07e
ML-2 = tested on: ML-2
MOLM-13 = tested on: MOLM-13
MV4-11 = tested on: MV4-11
U937 = tested on: U937
[1] = relative to cycloheximide control, log10 luminescence

SMILES	CHRF288-11 %inh (CHRF288-11; [1]) [%]	CMK %inh (CMK; [1]) [%]	CMS %inh (CMS; [1]) [%]	M07e %inh (M07e; [1]) [%]	ML-2 %inh (ML-2; [1]) [%]	MOLM-13 %inh (MOLM-13; [1]) [%]	MV4-11 %inh (MV4-11; [1]) [%]	U937 %inh (U937; [1]) [%]	further results
CSc1c(C2=C(c3cn(C)c4ccccc34)C(=O)NC2=O)c2ccccc2n1C [SJ000581035-1]	9.742	87.18	16.27	31.51	21.47	28.45	31.9	26.62	–
C[C@]12CCC(=O)C=C1C=C[C@@H]1[C@@H]2CC[C@@]2(C)[C@H]1CC[C@@]21CCC(=O)O1 [SJ000286091-3, CANRENONE]	2.724	0.4745	0.603	2.621	3.227	5.53	4.82	3.254	–
CC(C)[C@H](NS(=O)(=O)c1ccc(-c2ccc(Br)cc2)cc1)C(=O)O [SJ000772395-1, PD 166793]	2.843	1.088	-2.252	-2.219	-0.8645	0.2317	-0.00905	3.907	–
NS(=O)(=O)c1ccc(Nc2ncc(-c3ccccc3)o2)cc1 [SJ000573303-1, U14961/32/1]	–	–	–	–	–	–	–	–	CHRF288-11 %inh (CHRF288-11; 10 µM): 3.992%; CMK %inh (CMK; 10 µM): 30.97%; CMS %inh (CMS; 10 µM): 6.689%; M07e %inh (M07e; 10 µM): 5.73%; ML-2 %inh (ML-2; 10 µM): 4.386%; MOLM-13 %inh (MOLM-13; 10 µM): 74.24%; MV4-11 %inh (MV4-11; 10 µM): 64.71%; U937 %inh (U937; 10 µM): 6.622%
Fc1ccc(-c2ncn(C3CCNCC3)c2-c2ccnc(Oc3ccc4c(c3)OCO4)n2)cc1 [SJ000573123-1, JB27026-196B1]	7.293	13.54	0.7899	3.354	3.564	2.344	0.1546	5.059	–
COc1cc(F)c(F)c(F)c1C(=O)c1cnc(NC2CCN(S(C)(=O)=O)CC2)nc1N [SJ000581164-1]	47.57	59.95	23.31	35.86	21.95	83.36	22.69	40.5	–
Cn1cc(C2=C(c3c4n(c5ccccc35)CCCC4)C(=O)NC2=O)c2ccccc21 [SJ000580963-1]	3.717	59.12	9.345	29.09	20.63	2.901	8.237	27.07	–
COc1ccc2[nH]c3c4[nH]c5ccc(OC)cc5c4c4c(c3c2c1)C(=O)NC4=O [SJ000573218-1, 3744W 92C*D]	13.67	26.51	16.49	25.27	9.324	81.75	76.35	14.28	–
CS(=O)(=O)CCn1c(=O)c(Oc2ccc(F)cc2F)cc2cnc(NC3CCOCC3)nc21 [SJ000581023-1]	8.185	0.4611	-0.4321	1.483	0.4592	-0.00779	1.997	-0.5257	–
CCCc1cc(=O)[nH]c(=S)[nH]1 [SJ000286145-4, PROPYLTHIOURACIL]	1.792	-4.099	-1.815	2.631	1.023	-0.9508	0.3408	-0.4734	–
ON=C1CCc2cc(-c3nc(C4CCNCC4)[nH]c3-c3ccncc3)ccc21 [SJ000573159-1, DD48690-004A1]	-1.561	-2.711	1.757	1.161	3.813	2.332	-4.441	-1.918	–
CNC(=O)c1cncc(/C=C/c2ccccc2Cl)c1 [SJ000573070-1, U12068/61/1]	33.2	93.63	-0.2342	31.9	26.34	4.101	-1.892	0.1459	–
Cc1c[nH]c(/C=C2\C(=O)Nc3ccccc32)c1CCC(=O)O [SJ000773151-1, SU 5402 |]	8.965	3.453	2.629	7.079	-0.6671	64.04	45.76	-1.966	–
NC(=O)c1ccc(-c2nc(-c3ccc4c(c3)OCO4)c(-c3ccccn3)[nH]2)cc1 [SJ000574283-1, SB-431542 | SB431542]	-7.63	-2.116	0.4519	-4.824	0.07602	3.22	0.325	-2.319	–
CC(C)(C)C(=O)Oc1ccc(S(=O)(=O)Nc2ccccc2C(=O)NCC(=O)O)cc1 [SJ000556638-3, SIVELESTAT SODIUM SALT]	–	–	–	–	–	–	–	–	CHRF288-11 %inh (CHRF288-11; relative to cycloheximide control, log10 luminescence, CHRF288-11 %inh, 10 µM): -1.426%; CMK %inh (CMK; relative to cycloheximide control, log10 luminescence, CMK %inh, 10 µM): -2.417%; CMS %inh (CMS; relative to cycloheximide control, log10 luminescence, CMS %inh, 10 µM): -1.314%; M07e %inh (M07e; relative to cycloheximide control, log10 luminescence, M07e %inh, 10 µM): 0.5204%; ML-2 %inh (ML-2; relative to cycloheximide control, log10 luminescence, ML-2 %inh, 10 µM): 0.7785%; MOLM-13 %inh (MOLM-13; relative to cycloheximide control, log10 luminescence, MOLM-13 %inh, 10 µM): -1.044%; MV4-11 %inh (MV4-11; relative to cycloheximide control, log10 luminescence, MV4-11 %inh, 10 µM): -1.916%; U937 %inh (U937; relative to cycloheximide control, log10 luminescence, U937 %inh, 10 µM): -0.2709%
Cc1ccccc1-n1c(Cn2cnc3c(N)ncnc32)nc2cccc(C)c2c1=O [SJ000571308-2, IC-87114 | PIK 293]	10.49	-7.948	-0.8579	-1.447	1.318	2.064	3.81	0.4255	–
Cn1c(=O)c(Oc2ccccc2)cc2cnc(NC3CCOCC3)nc21 [SJ000581171-1]	9.708	8.741	6.487	1.8	2.493	4.705	4.76	5.834	–
